# According to US11033568B2, “Nicotinamide riboside compositions for topical use in treating skin conditions” (ChromaDex Inc., priority 2013, dated 2021):
# What was measured:
# [1] = tested on: A431 human epidermoid cells; assay: Oxidative damage protection assay (1 mM H2O2, alamar blue cell viability); assay type: cell-based; details: for percent cytoprotection: 1 mM H2O2, vs positive (H2O2) control
# Description: A431 human epidermoid cells (ATCC #CRL1555) were grown in DMEM media supplemented with 10% FBS and 1% PenStrep in T75 flasks based on culture recommendations. The media was replaced every two-three days till >80% confluency was attained. The cells were trypsinized with 0.25% trypsin EDTA solution for 2-3 minutes until the cells were dislodged. The cells were sub-cultured in a ratio of 1:3 for further growth and scale-up for the assay. The cells were trypsinized and counted to a density of 5,000 or 15,000 cells and seeded in […], media/well in 96-well clear bottom black plates. The outer wells at the periphery of the plates were left unseeded and were instead filled with media to reduce the edge effect during incubation. The plates were incubated overnight in a humidified incubator at 37° C./5% CO2 to confirm that the cells were attached. The Nicotinamide Riboside chloride (NR chloride) was added at indicated final assay concentrations in the media either under pre-treatment for 24 h (without hydrogen peroxide) or along with 1 mM hydrogen peroxide for an incubation of 20 h in a humidified incubator at 37° C./5% CO2 either with media replenishment at 8 h or under growth synchronized conditions using 1% FBS. Each concentration was tested in 6 replicates. Appropriate controls: cells without compound and hydrogen peroxide (no cytotoxicity; negative control), cells without compound but in the presence of 1 mM hydrogen peroxide (positive control), wells with alamar blue alone (blank) were kept in each assay. Cell viability was graphed and data was represented as percent cytotoxicity for 1 mM H2O2 under a given assay condition with respect to negative (untreated control) cells or percent cytoprotection in the presence of the test compound calculated with respect to positive (1 mM H2O2) control.
# [2] = tested on: A431 cell line; assay: UV-C damage assay, cyclobutane pyrimidine dimer (CPD) ELISA; assay type: cell-based, human; details: for cyclobutane pyrimidine dimer (CPD) level vs. control: 2 h pre-treatment, 10 J/m^2 UVC
# Description: The A431 cell line was seeded in 6-wells plate at a seeding density of 4×10^5 cells/well in 2 ml of culture media containing 10% FBS. The cells were left untreated as a control or treated with different concentrations of NR chloride in the media (5 mM and 1 mM) for 2 h under a fully humidified atmosphere containing 5% CO2 at 37° C. After incubation, culture media was replaced by PBS and cells were exposed to 10 J/m^2 UVC irradiation. Plates were harvested along with respective controls immediately after UVC exposure (Negative Control was cells without UV-C exposure while Positive Control was untreated Cells with UV-C exposure). DNA from cells in each condition was extracted and quantified by NanoDrop. DNA samples were then added in the ELISA plate at 100 ng/well conc. and amount of cyclobutane pyrimidine dimer (CPD) was estimated in the DNA samples using CPD-DNA estimation kits (OxiSelect™, Cell Biolabs, Inc., San Diego, USA) as per manufacturer's protocol.
# [3] = tested on: NIH 3T3 fibroblasts; assay: Scratch wound healing assay (CytoSelect Wound Healing Assay Kit); assay type: cell-based, mouse
# Description: NIH 3T3 fibroblasts were obtained from […]) and cultured in Dulbecco's modified Eagle's medium (DMEM) supplemented with 10% fetal bovine serum (FBS), 4 mM L-glutamine, 1% penicillin/streptomycin under a fully humidified atmosphere containing 5% CO2 at 37° C. For experiments, cells were collected from subconfluent monolayers with trypsin/EDTA. Cell viability was higher as 95% using trypan blue dye exclusion staining. The study was carried out using cells from passages 4-7 in DMEM medium containing 1% FBS. Untreated cells (1% FBS) were used as negative controls. The effect of nicotinamide riboside chloride (NR chloride) on wound closure in NIH 3T3 fibroblasts was investigated. Cell viability was determined by cell titer blue (Promega), wound closure by CytoSelectTM Wound Healing Assay Kit (Cell Biolabs, Inc., San Diego, USA). All conditions were performed in three independent, controlled experiments. […] Microscopic imaging of wound closure was analyzed using “Image J” software. […] Apart from microscopic observations, data was analyzed for the determination of total surface area of the defined wound area using “Image J” software. Surface area of the migrated cells into the wound area was calculated by subtracting surface area after 24 hour from total surface area of the wound at “0” hour. […]
# [4] = cited from earlier work
structure (smiles),measurement,setting,value
"NC(=O)c1ccc[n+]([C@@H]2O[C@H](CO)[C@@H](O)[C@H]2O)c1 [NR chloride, Nicotinamide Riboside chloride]",percent cytoprotection,"[1]; 0.04 mM, normal growth (10% FBS)",−1%
same,percent cytoprotection,"[1]; 0.2 mM, growth synchronized (1% FBS)",2%
same,percent cytoprotection,"[1]; 0.2 mM, normal growth (10% FBS)",8%
same,percent cytoprotection,"[1]; 1 mM, growth synchronized (1% FBS)",15%
same,percent cytoprotection,"[1]; 1 mM, normal growth (10% FBS)",23%
same,percent cytoprotection,"[1]; 5 mM, growth synchronized (1% FBS)",38%
same,reduction of oxidative damage-mediated cell death,[1]; expected,at least 10%
same,reduction of oxidative damage-mediated cell death,"[1]; summary over conditions, even in growth arrested condition",10-40%
same,cyclobutane pyrimidine dimer (CPD) level vs. control,"[2]; +1 mM, 1.2 μg/ml DNA control",−32%
same,cyclobutane pyrimidine dimer (CPD) level vs. control,"[2]; +1 mM, 2.1 μg/ml DNA control",−41%
same,cyclobutane pyrimidine dimer (CPD) level vs. control,"[2]; +5 mM, 1.2 μg/ml DNA control",−34%
same,cyclobutane pyrimidine dimer (CPD) level vs. control,"[2]; +5 mM, 2.1 μg/ml DNA control",−50%
same,reduction of levels of CPDs,[2]; expected,at least 10%
same,gap closure,[3]; 0.2 mM + 1% FBS,13%
same,gap closure,"[3]; 1 mM + 1% FBS, 24 hour incubation",46%
"COc1cc(/C=C/c2ccc(O)cc2)cc(OC)c1 [pterostilbene, 3,5-dimethoxy-4′-hydroxy-trans-stilbene]",half life t1/2,[4]; in blood,about 105 minutes
same,oral bioavailability,"[4]; in vivo, po",orally bioavailable
